Test results: ChEMBL document CHEMBL1133772, “In vitro and in vivo evaluation of dihydropyrimidinone C-5 amides as potent and selective alpha(1A) receptor antagonists for the treatment of benign prostatic hyperplasia” (J Med Chem, 2000)

Key:
[1] = target: T1, Alpha-1D adrenergic receptor (Homo sapiens, UniProt P25100); assay: Evaluated for the ability to displace [125I]- HEAT from human cloned Alpha-1D adrenergic receptor stably expressed in HEK cells.; assay type: cell-based, HEK293
T1 sequence (P25100 whole entry): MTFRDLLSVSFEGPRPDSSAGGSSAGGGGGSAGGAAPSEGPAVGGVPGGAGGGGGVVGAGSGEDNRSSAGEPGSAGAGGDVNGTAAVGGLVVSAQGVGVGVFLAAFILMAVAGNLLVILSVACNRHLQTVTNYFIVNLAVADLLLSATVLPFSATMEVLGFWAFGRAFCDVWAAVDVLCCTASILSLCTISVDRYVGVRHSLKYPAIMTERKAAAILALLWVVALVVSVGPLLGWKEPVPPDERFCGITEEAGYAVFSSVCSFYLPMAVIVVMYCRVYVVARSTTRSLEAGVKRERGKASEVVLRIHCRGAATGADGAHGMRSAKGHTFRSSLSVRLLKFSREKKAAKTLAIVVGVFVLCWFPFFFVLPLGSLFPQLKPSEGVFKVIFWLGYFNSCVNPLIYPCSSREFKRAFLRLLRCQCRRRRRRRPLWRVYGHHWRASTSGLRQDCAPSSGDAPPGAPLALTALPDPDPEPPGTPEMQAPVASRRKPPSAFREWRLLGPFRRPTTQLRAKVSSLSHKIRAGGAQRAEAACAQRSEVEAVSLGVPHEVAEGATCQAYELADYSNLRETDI

[2] = target: T2, Alpha-1A adrenergic receptor (Homo sapiens, UniProt P35348); assay: Evaluated for the ability to displace [125I]- HEAT from human cloned Alpha-1A adrenergic receptor stably expressed in CHO cells.; assay type: cell-based
T2 sequence (P35348 whole entry): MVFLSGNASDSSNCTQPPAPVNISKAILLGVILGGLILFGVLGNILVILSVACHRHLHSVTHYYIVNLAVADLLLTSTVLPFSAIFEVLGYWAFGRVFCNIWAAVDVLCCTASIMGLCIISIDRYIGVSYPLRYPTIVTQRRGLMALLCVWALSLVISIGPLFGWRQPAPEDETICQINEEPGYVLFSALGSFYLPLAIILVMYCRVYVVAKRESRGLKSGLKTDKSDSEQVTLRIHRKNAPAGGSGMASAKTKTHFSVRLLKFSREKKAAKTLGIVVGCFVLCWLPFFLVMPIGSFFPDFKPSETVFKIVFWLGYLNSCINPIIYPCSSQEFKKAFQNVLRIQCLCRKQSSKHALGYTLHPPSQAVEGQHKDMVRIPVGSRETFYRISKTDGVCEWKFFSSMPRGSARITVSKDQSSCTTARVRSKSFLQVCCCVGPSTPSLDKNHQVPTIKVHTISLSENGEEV

[3] = target: T3, Alpha-1B adrenergic receptor (Homo sapiens, UniProt P35368); assay: Evaluated for the ability to displace [125I]- HEAT from human cloned Alpha-1B adrenergic receptor stably expressed in LM cells.; assay type: cell-based
T3 sequence (P35368 whole entry): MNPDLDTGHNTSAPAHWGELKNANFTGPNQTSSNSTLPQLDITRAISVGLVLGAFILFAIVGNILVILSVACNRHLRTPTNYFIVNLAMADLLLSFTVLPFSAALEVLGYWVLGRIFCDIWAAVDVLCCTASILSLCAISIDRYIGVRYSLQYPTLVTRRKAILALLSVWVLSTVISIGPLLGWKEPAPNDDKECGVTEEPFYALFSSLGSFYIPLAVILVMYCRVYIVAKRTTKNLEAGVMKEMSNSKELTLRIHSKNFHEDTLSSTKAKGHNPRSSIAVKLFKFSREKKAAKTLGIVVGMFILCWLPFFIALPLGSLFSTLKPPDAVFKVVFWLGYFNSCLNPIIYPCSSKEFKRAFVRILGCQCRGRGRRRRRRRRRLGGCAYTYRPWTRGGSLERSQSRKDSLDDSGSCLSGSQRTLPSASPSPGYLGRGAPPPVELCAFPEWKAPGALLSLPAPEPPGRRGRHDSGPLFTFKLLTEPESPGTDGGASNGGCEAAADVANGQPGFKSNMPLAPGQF

[4] = Bioavailability in rat; assay type: ADME, organism-based; conditions: in vivo
Rattus norvegicus [5] = organism: Rattus norvegicus; assay: Evaluated for the inhibition of A61603-induced prostate contraction in rat; assay type: functional, Prostate gland
Rattus norvegicus [6] = organism: Rattus norvegicus; assay: Duration of action with repeated challenges of A61603 agonist in rat; assay type: functional; note: test concentration or dose not given here
[7] = t1/2 in rat; assay type: ADME, organism-based; conditions: in vivo
[8] = target: T1, Alpha-1D adrenergic receptor; assay: Ability to displace [125I]- HEAT from human cloned Alpha-1D adrenergic receptor stably expressed in HEK cells.; assay type: cell-based, HEK293
[9] = target: T2, Alpha-1A adrenergic receptor; assay: Ability to displace [125I]- HEAT from human cloned Alpha-1A adrenergic receptor stably expressed in CHO cells.; assay type: cell-based
[10] = target: T3, Alpha-1B adrenergic receptor; assay: Ability to displace [125I]- HEAT from human cloned Alpha-1B adrenergic receptor stably expressed in LM cells.; assay type: cell-based

SMILES | Ki [1] | Ki [2] | Ki [3] | bioavailability [4] | half-life [7] | Ki [8] | Ki [9] | Ki [10] | AD50 (Rattus norvegicus [5]) | Duration (Rattus norvegicus [6])
CC1=C(C(=O)NCCCN2CCC(c3ccc(F)cc3)CC2)[C@H](c2ccc(F)c(F)c2)NC(=O)N1C |  | 20 nM | 110 nM |  |  | 600 nM |  |  |  | 
N#Cc1cc(F)ccc1C1CCN(CCCNC(=O)C2=CNC(=O)N[C@@H]2c2ccc(F)c(F)c2)CC1 | 62 nM | 0.07 nM | 26 nM | 0% | 174 min |  |  |  | 1.8 µg/kg | 2 h
CN1C=C(C(=O)NCCCN2CCC(C#N)(c3ccc(F)cc3C#N)CC2)[C@@H](c2ccc(F)c(F)c2)N(C)C1=O | 250 nM | 0.3 nM | 72 nM | < 6% | 15 min |  |  |  | 13 µg/kg | 3 h
CC1=C(C(=O)NCCCN2CCC(C#N)(c3ccc(F)cc3C#N)CC2)[C@@H](c2ccc(F)c(F)c2)NC(=O)N1C | > 4000 nM | 0.6 nM | > 2000 nM | 0% | 24 min |  |  |  | 5 µg/kg | 1 h
COCC1=C(C(=O)NCCCN2CCC(c3ccc(F)cc3C#N)CC2)[C@@H](c2ccc(F)c(F)c2)NC(=O)N1 | 260 nM | 0.14 nM | 35 nM | < 6% | 175 min |  |  |  | 2.8 µg/kg | 1.5 h
N#Cc1ccccc1C1CCN(CCCNC(=O)C2=C(C(F)(F)F)NC(=O)N[C@@H]2c2ccc(F)c(F)c2)CC1 | 220 nM | 20 nM | 700 nM |  |  |  |  |  |  | 
CC1=C(C(=O)NCCCN2CCC(c3ccc(F)cc3)CC2)[C@@H](c2ccc(F)c(F)c2)N(C)C(=O)N1 | 120 nM | 0.14 nM | 4.8 nM |  |  |  |  |  |  | 
COCC1=C(C(=O)NCCCN2CCC(c3ccccc3C#N)CC2)[C@@H](c2ccc(F)c(F)c2)NC(=O)N1 | 285 nM | 0.42 nM | 285 nM | < 6% | 108 min |  |  |  | 7 µg/kg | 0.6 h
CC1=C(C(=O)NCCCN2CCC(c3ccccn3)CC2)[C@@H](c2ccc(F)c(F)c2)NC(=O)N1 | > 5000 nM | 2.6 nM | > 2000 nM | 0% | 42 min |  |  |  | 2.3 µg/kg | 0.5 h
CC1=C(C(=O)NCCCN2CCC(C#N)(c3ccc(F)cc3)CC2)[C@@H](c2ccc(F)c(F)c2)NC(=O)N1C | 2200 nM | 0.39 nM | 1100 nM | < 6% | 45 min |  |  |  | 21 µg/kg | 1.5 h
O=C1NC=C(C(=O)NCCCN2CCC(O)(c3ccc(F)cc3)CC2)[C@@H](c2ccc(F)c(F)c2)N1 | 880 nM | 0.91 nM | 160 nM | 0% | 37 min |  |  |  | 1.2 µg/kg | 0.5 h
CN1C=C(C(=O)NCCCN2CCC(c3ccc(F)cc3C#N)CC2)[C@@H](c2ccc(F)c(F)c2)NC1=O | 69 nM | 0.068 nM | 7.9 nM | 0% | 48 min |  |  |  | 5 µg/kg | 4 h

More lines, main results first:

Ki [1] | Ki [2] | Ki [3] | bioavailability [4] | half-life [7] | Ki [8] | Ki [9] | Ki [10] | SMILES | AD50 (Rattus norvegicus [5]) | Duration (Rattus norvegicus [6])
170 nM | 0.75 nM | 25 nM |  |  |  |  |  | COC(=O)N1C(=O)N(C)C(C)=C(C(=O)NCCCN2CCC(c3ccc(F)cc3)CC2)[C@H]1c1ccc(F)c(F)c1 |  | 
2400 nM | 0.16 nM | 970 nM | 0% | 45 min |  |  |  | N#Cc1ccccc1C1(C#N)CCN(CCCNC(=O)C2=CNC(=O)N[C@@H]2c2ccc(F)c(F)c2)CC1 | 3 µg/kg | 1 h
630 nM | 0.18 nM | 440 nM | 0% | < 60 min |  |  |  | CN1C=C(C(=O)NCCCN2CCC(C#N)(c3ccc(F)cc3C#N)CC2)[C@@H](c2ccc(F)c(F)c2)NC1=O | 4 µg/kg | 3.5 h
> 3000 nM | 2.5 nM | 1850 nM |  |  |  |  |  | O=C1NC=C(C(=O)NCCCN2CCC(c3ccccn3)CC2)[C@@H](c2ccc(F)c(F)c2)N1 |  | 
1200 nM |  | 270 nM |  |  |  | 19 nM |  | O=C1NC(C(F)(F)F)=C(C(=O)NCCCN2CCC(c3ccc(F)cc3)CC2)[C@@H](c2ccc(F)c(F)c2)N1 |  | 
810 nM | 0.17 nM | 140 nM | 0% | 140 min |  |  |  | N#CC1(c2ccc(F)cc2)CCN(CCCNC(=O)C2=CNC(=O)N[C@@H]2c2ccc(F)c(F)c2)CC1 | 7 µg/kg | 0.75 h
> 5000 nM | 500 nM | > 2000 nM |  |  |  |  |  | O=C1NC(C(F)(F)F)=C(C(=O)NCCCN2CCC(c3ccccn3)CC2)[C@@H](c2ccc(F)c(F)c2)N1 |  | 
270 nM | 4.2 nM | 200 nM |  |  |  |  |  | N#Cc1cc(F)ccc1C1CCN(CCCNC(=O)C2=C(C(F)(F)F)NC(=O)N[C@@H]2c2ccc(F)c(F)c2)CC1 |  | 
 |  |  |  |  | 410 nM | 11 nM | 85 nM | CC1=C(C(=O)NCCCN2CCC(c3ccc(F)cc3)CC2)[C@H](c2ccc(F)c(F)c2)N(C)C(=O)N1C |  | 
160 nM | 0.13 nM | 290 nM | 0% | 43 min |  |  |  | N#Cc1ccccc1C1CCN(CCCNC(=O)C2=CNC(=O)N[C@@H]2c2ccc(F)c(F)c2)CC1 | 1.5 µg/kg | 0.5 h
230 nM | 2.2 nM | 33 nM |  |  |  |  |  | CC(=O)N1C(=O)N(C)C(C)=C(C(=O)NCCCN2CCC(c3ccc(F)cc3)CC2)[C@H]1c1ccc(F)c(F)c1 |  | 
